Laboratory results published in publication PMC9081329, “Pharmacokinetics, Mass Balance, Excretion, and Tissue Distribution of Plasmalogen Precursor PPI-1011” (Frontiers in Cell and Developmental Biology, 2022).

Experiment: Dose formulation stability by HPLC with radioactivity detection
Type: physicochemical
Details: 20 mg/ml in LCO with 0.1% 1-thioglycerol
Description: PPI-1011 and [^14C]PPI-1011 were formulated together in liquid coconut oil (LCO) containing 0.1% 1-thioglycerol for oral dosing. For single dose studies, PPI-1011 and [^14C]PPI-1011 were combined to generate an oral formulation with a concentration of 20 mg/ml and 40 μCi/ml on the day before dosing and stored at 4°C. Formulation for the repeat dosing QWBA experiment was made on the day prior to the first dose with a concentration of 20 mg/ml and 20 μCi/ml. This formulation was then aliquoted and stored frozen at −20°C until the day of use. Concentration and radiochemical purity of all formulations were confirmed by HPLC prior to dosing.
Radiochemical concentrations and purity of the oral dose formulations were all confirmed to be >97% by HPLC with radioactivity detection. The mean radioactivity concentrations of dose formulations were 21.24 μCi/g. Representative radiochromatograms obtained from analysis of dose formulation of [^14C]PPI-1011 are shown in Supplementary Figure S1. The retention time of [^14C]PPI-1011 was approximately 12 min. The stability of the dose formulation at 20 mg/ml concentration was examined at 4°C and at −20°C for up to 24 h. The results are shown in Supplementary Figure S2. […]

## CC/C=C\C/C=C\C/C=C\C/C=C\C/C=C\C/C=C\CCC(=O)O[C@H](CO[14CH2]CCCCCCCCCCCCCCC)COC(=O)CCCCC1CCSS1 (some centres unmarked) [[^14C]PPI-1011]
Up to 24 h at 4°C
  Radioactive purity of dose formulation after storage (stability): 96.5%
Up to 24 h at −20°C
  Radioactive purity of dose formulation after storage (stability): 97.2%
